This note sets out measurements from ChEMBL document CHEMBL1201862, “PubChem BioAssay data set” (2004).

The structures appear in SMILES notation.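 Method: 48-hour compound exposure of cells in 96-well plates, five concentrations, linear interpolation of endpoints. The concentration for 50% growth inhibition is given as GI50.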 Activity calls are given as the source filed them. No stated cut-off is given here; in the data, active = GI50 up to about 1.1 µM and inactive = higher.

Among the test systems are RXF 393; HOP-62; U-251; NCI-H460; SNB-75; MOLT-4; KM-20L2; SF-268; SNB-78; NCI/ADR-RES; MCF7; NCI-H226; HL-60; A549; UO-31; T47D; Hs-578T; TK-10; PC-3; BT-549.
What all share (assay): NCI tumour cell line growth inhibition, 48 h

As for `O=C(NC(Cc1ccc(I)cc1)C(=O)O)c1ccc(Br)cc1` (configuration not stated), the GI50 with RXF 393 was > 100 µM (inactive); in the experiment with HOP-62 it was > 100 µM (inactive); in the experiment with U-251, 65.8 µM (inactive); in the experiment on NCI-H460 it was 98.6 µM (inactive); with SNB-75, 30.1 µM (inactive); with MOLT-4, > 72.9 µM (inactive). Moreover, the GI50 in the experiment with KM-20L2 was > 100 µM (inactive); in the experiment on SF-268, > 100 µM (inactive); in the experiment on SNB-78, > 100 µM (inactive); in the experiment with NCI/ADR-RES it was > 100 µM (inactive); in the experiment on MCF7, > 60.4 µM (inactive); with NCI-H226, > 100 µM (inactive). Also, the GI50 in the experiment on HL-60, in the experiment with A549 and in the experiment on UO-31 was > 100 µM (inactive) in each case.
For `O=C(c1ccccc1)C1C(c2ccccc2)N1S(=O)(=O)c1ccccc1` (configuration not stated), the GI50 in the experiment with RXF 393, in the experiment on T47D, with HOP-62, with U-251, with SNB-75 and in the experiment with MOLT-4 was > 100 µM (inactive) throughout. Further, the GI50 in the experiment with Hs-578T, in the experiment on TK-10, in the experiment with SF-268, with PC-3, in the experiment with BT-549 and with NCI/ADR-RES was > 100 µM (inactive) each time. Besides, the GI50 in the experiment on MCF7, in the experiment on NCI-H226, with A549 and with UO-31 was > 100 µM (inactive) in each case.
As to `O=c1c(-c2ccccc2)c(SCCN2CCCCCC2)n(-c2ccccc2)c(=S)n1-c1ccccc1`, the GI50 in the experiment on RXF 393 is 17.2 µM (inactive); in the experiment on HOP-62, 46.6 µM (inactive); with NCI-H460 it was 46.8 µM (inactive); in the experiment on SNB-75, > 100 µM (inactive); in the experiment on MOLT-4, 13.4 µM (inactive); with Hs-578T, 39.8 µM (inactive). Further, the GI50 in the experiment on TK-10 was 48.4 µM (inactive); in the experiment on BT-549, > 100 µM (inactive); in the experiment on NCI/ADR-RES, 68.2 µM (inactive); in the experiment with MCF7, 24.9 µM (inactive); in the experiment on NCI-H226, 94.8 µM (inactive); in the experiment with HL-60 it was 11 µM (inactive).
As to `CCOC(=O)C(C(=O)OCC)c1cc(-c2cc3ccccc3o2)oc(=O)c1C#N`, the GI50 in the experiment with RXF 393 is 19.6 µM (inactive); in the experiment with U-251, 16.2 µM (inactive); in the experiment with NCI-H460, 30.2 µM (inactive); with SNB-75, 26.2 µM (inactive); with MOLT-4 it was 21.6 µM (inactive); in the experiment with TK-10, 27.3 µM (inactive). Further, the GI50 with KM-20L2 was 19.3 µM (inactive); in the experiment on SF-268 it was 34.9 µM (inactive); with SNB-78 it was 18 µM (inactive); in the experiment on NCI-H226, 21.1 µM (inactive); in the experiment on HL-60, 29.7 µM (inactive); in the experiment with A549, 33.4 µM (inactive). In addition, the GI50 in the experiment with UO-31 was 32.2 µM (inactive).
Consider `Nc1nnc2ccc(Cl)cc2[n+]1[O-]`, for which the GI50 was 29.8 µM (inactive) in the experiment with RXF 393; 44.9 µM (inactive) in the experiment on T47D; > 100 µM (inactive) with HOP-62; > 100 µM (inactive) in the experiment with U-251; > 100 µM (inactive) with SNB-75; 35.1 µM (inactive) with MOLT-4. The GI50 in the experiment on Hs-578T was 41.7 µM (inactive); in the experiment on TK-10 it was > 100 µM (inactive); in the experiment with SF-268, 38 µM (inactive); in the experiment with PC-3 it was > 100 µM (inactive); in the experiment on BT-549, > 100 µM (inactive); with NCI/ADR-RES it was 40.1 µM (inactive). In addition, the GI50 in the experiment with MCF7 is 70.1 µM (inactive); in the experiment with NCI-H226, > 100 µM (inactive); in the experiment on HL-60, 29.3 µM (inactive); in the experiment with UO-31, > 100 µM (inactive).
`Cc1ccc(NC(=O)S(N)(c2ccc(C)cc2)[N+](=O)[O-])cc1` (configuration not stated): the GI50 in the experiment with RXF 393 was > 100 µM (inactive); in the experiment on T47D it was 38 µM (inactive); in the experiment on HOP-62 it was > 100 µM (inactive); with U-251 it was > 100 µM (inactive); with NCI-H460, > 100 µM (inactive); with SNB-75, > 100 µM (inactive). Besides, the GI50 was 84.7 µM (inactive) in the experiment on MOLT-4; > 100 µM (inactive) with Hs-578T; > 100 µM (inactive) in the experiment on TK-10; > 100 µM (inactive) with PC-3; > 100 µM (inactive) in the experiment on BT-549; > 100 µM (inactive) with NCI/ADR-RES. The GI50 with MCF7 is > 100 µM (inactive); with NCI-H226, > 100 µM (inactive); in the experiment with HL-60, 10 µM (inactive); in the experiment on UO-31 it was 75 µM (inactive).
As to `N#Cc1ccccc1NC(=O)C(=O)C(C(=O)c1ccccc1F)C1OC(=O)c2ccccc21` (configuration not stated), the GI50 was 44.3 µM (inactive) in the experiment on RXF 393; 66.8 µM (inactive) in the experiment with HOP-62; 15 µM (inactive) in the experiment with U-251; 41.1 µM (inactive) with NCI-H460; 38.4 µM (inactive) in the experiment on SNB-75; 25 µM (inactive) in the experiment on MOLT-4. For the same molecule, the GI50 with TK-10 was > 100 µM (inactive); with KM-20L2, 76.7 µM (inactive); with SF-268, 40.1 µM (inactive); in the experiment with SNB-78, 25.8 µM (inactive); in the experiment on NCI-H226 it was 18.4 µM (inactive); in the experiment on HL-60 it was 20.9 µM (inactive). For the same molecule, the results for the GI50 in the experiment with A549 and in the experiment on UO-31 were 70.8 µM (inactive) and 43.8 µM (inactive), respectively.
Regarding `Cc1cccc(C(O)c2cccnc2)c1O` (configuration not stated), the GI50 in the experiment with RXF 393, in the experiment on T47D, in the experiment on HOP-62, in the experiment on U-251, in the experiment on NCI-H460 and in the experiment with SNB-75 was > 100 µM (inactive) in each case. Further, the GI50 with MOLT-4, in the experiment on Hs-578T, in the experiment with TK-10, in the experiment on SF-268, in the experiment with PC-3 and with BT-549 was > 100 µM (inactive) each time. Also, the GI50 in the experiment on NCI/ADR-RES, with MCF7, in the experiment with NCI-H226, in the experiment on HL-60, with A549 and with UO-31 was > 100 µM (inactive) in each case.
On to `CC(C)=CCC(OC(=O)C=C(C)C)c1cc(O)c2c(c1O)C(=O)C=CC2=O` (configuration not stated), for which the GI50 was 0.218 µM (active) in the experiment on RXF 393; 12.8 µM (inactive) with HOP-62; 3.08 µM (inactive) with U-251; 2.75 µM (inactive) in the experiment with NCI-H460; 4.98 µM (inactive) in the experiment with SNB-75; 1.82 µM (inactive) in the experiment with KM-20L2. Also, the GI50 with SF-268 was 1.39 µM (inactive); with SNB-78, 2.07 µM (inactive); with NCI/ADR-RES it was 0.406 µM (active); in the experiment on NCI-H226 it was 2.97 µM (inactive); in the experiment on HL-60, 0.0419 µM (active); in the experiment on A549, 5.04 µM (inactive). Further, the GI50 with UO-31 was 3.3 µM (inactive).
Take `Brc1ccccc1-c1ncc(-c2ccccc2)o1`: the GI50 was 21.7 µM (inactive) in the experiment on RXF 393; 9.29 µM (inactive) with T47D; 27.8 µM (inactive) in the experiment on HOP-62; 17 µM (inactive) in the experiment on U-251; 29.9 µM (inactive) with NCI-H460; 20.6 µM (inactive) with SNB-75. Moreover, the GI50 in the experiment on MOLT-4 is 14.2 µM (inactive); with Hs-578T, 10.3 µM (inactive); with TK-10 it was 47.2 µM (inactive); in the experiment on SF-268, 27.9 µM (inactive); in the experiment on PC-3, 34.2 µM (inactive); in the experiment on BT-549, 29.2 µM (inactive). The GI50 in the experiment with NCI/ADR-RES was 30.8 µM (inactive); in the experiment with MCF7 it was 3.47 µM (inactive); in the experiment with HL-60, 30.5 µM (inactive); in the experiment on A549 it was 44.7 µM (inactive); in the experiment on UO-31, 43.7 µM (inactive).
With `CC1=CC[C@H](C)C(C)(C)C1/C=C/C(C)=C/CC[C@@]1(CO)[C@H](CCCO)/C(=C(/C)C=O)CC[C@]1(C)O` (some centres not stated), the GI50 with RXF 393 is 14.6 µM (inactive); with U-251, 2.86 µM (inactive); with NCI-H460 it was 1.11 µM (active); in the experiment with MOLT-4, 1.57 µM (inactive); in the experiment with TK-10, 5.5 µM (inactive); with KM-20L2, 1.82 µM (inactive). Moreover, the GI50 with SF-268 is 7.46 µM (inactive); in the experiment with SNB-78 it was 13.2 µM (inactive); in the experiment on NCI-H226 it was 1.9 µM (inactive); in the experiment with HL-60, 0.897 µM (active); with A549, 0.877 µM (active); in the experiment on UO-31, 8.45 µM (inactive).
For the molecule `O=C(O)C1CCC(=O)N1C(=O)COc1cc(Cl)c(Cl)cc1Cl` (configuration not stated), the GI50 in the experiment with U-251 is > 100 µM (inactive); with NCI-H460, > 100 µM (inactive); with SNB-75, 40.6 µM (inactive); with TK-10, > 100 µM (inactive); in the experiment on KM-20L2 it was > 100 µM (inactive); in the experiment with SF-268, > 100 µM (inactive). Besides, the GI50 in the experiment with SNB-78, in the experiment with NCI-H226, in the experiment on A549 and with UO-31 was > 100 µM (inactive) in each case.
